Laboratory results from the NIST ThermoML archive (doi:10.1021/je900596d).
Numbers after ± are expanded uncertainties.

Settings: 353.12 K, Fluid (supercritical or subcritical phases), Vibrating tube method

`FC(F)=C(F)C(F)(F)F` [hexafluoropropene] showed a mass density (251.4 kPa) of 13.222 ± 0.037 kg/m3, a mass density (262.8 kPa) of 13.844 ± 0.037 kg/m3 and a mass density (272.6 kPa) of 14.383 ± 0.038 kg/m3. It also gave a mass density (303.9 kPa) of 16.11 ± 0.039 kg/m3, a mass density (313 kPa) of 16.554 ± 0.039 kg/m3 and a mass density (322.1 kPa) of 17.107 ± 0.04 kg/m3. The mass density (330.9 kPa) was 17.558 ± 0.04 kg/m3, the mass density (340 kPa) was 18.069 ± 0.041 kg/m3 and the mass density (349.1 kPa) was 18.584 ± 0.041 kg/m3. The mass density (358.7 kPa) was 19.177 ± 0.042 kg/m3, the mass density (369.1 kPa) was 19.754 ± 0.042 kg/m3 and the mass density (379.1 kPa) was 20.272 ± 0.043 kg/m3. For the same compound, the mass density (389.1 kPa) was 20.831 ± 0.043 kg/m3, the mass density (398.8 kPa) was 21.42 ± 0.044 kg/m3 and the mass density (402.9 kPa) was 21.597 ± 0.044 kg/m3. It also gave a mass density (407.6 kPa) of 21.905 ± 0.044 kg/m3, a mass density (413.1 kPa) of 22.161 ± 0.045 kg/m3 and a mass density (418.2 kPa) of 22.524 ± 0.045 kg/m3. For the same compound, the mass density (427.2 kPa) was 23.019 ± 0.045 kg/m3, the mass density (456.1 kPa) was 24.636 ± 0.047 kg/m3 and the mass density (465.8 kPa) was 25.243 ± 0.048 kg/m3. The mass density (475.9 kPa) was 25.82 ± 0.05 kg/m3, the mass density (485.6 kPa) was 26.38 ± 0.05 kg/m3 and the mass density (494.8 kPa) was 26.85 ± 0.05 kg/m3. The mass density (499.7 kPa) was 27.22 ± 0.05 kg/m3, the mass density (504.9 kPa) was 27.48 ± 0.05 kg/m3 and the mass density (509.8 kPa) was 27.78 ± 0.05 kg/m3. The mass density (514.2 kPa) was 28 ± 0.05 kg/m3, the mass density (524.1 kPa) was 28.5 ± 0.05 kg/m3 and the mass density (533.5 kPa) was 29.18 ± 0.05 kg/m3. It also gave a mass density (538.4 kPa) of 29.45 ± 0.05 kg/m3, a mass density (545.1 kPa) of 30 ± 0.05 kg/m3 and a mass density (567 kPa) of 31.29 ± 0.05 kg/m3. The mass density (590.2 kPa) was 32.66 ± 0.06 kg/m3, the mass density (613.6 kPa) was 34.14 ± 0.06 kg/m3 and the mass density (636.8 kPa) was 35.5 ± 0.06 kg/m3. The mass density (660.1 kPa) was 36.92 ± 0.06 kg/m3, the mass density (683.4 kPa) was 38.37 ± 0.06 kg/m3 and the mass density (706.6 kPa) was 39.74 ± 0.06 kg/m3. It also gave a mass density (729.7 kPa) of 41.24 ± 0.07 kg/m3, a mass density (752.5 kPa) of 42.62 ± 0.07 kg/m3 and a mass density (775.3 kPa) of 44.06 ± 0.07 kg/m3. The mass density (796.9 kPa) was 45.46 ± 0.07 kg/m3, the mass density (816.7 kPa) was 46.73 ± 0.07 kg/m3 and the mass density (836 kPa) was 47.99 ± 0.07 kg/m3. For the same compound, the mass density (854.6 kPa) was 49.09 ± 0.07 kg/m3, the mass density (872.3 kPa) was 50.27 ± 0.08 kg/m3 and the mass density (890.1 kPa) was 51.44 ± 0.08 kg/m3. For the same compound, the mass density (907.5 kPa) was 52.57 ± 0.08 kg/m3, the mass density (924.8 kPa) was 53.65 ± 0.08 kg/m3 and the mass density (942.1 kPa) was 54.86 ± 0.08 kg/m3. For the same compound, the mass density (975.7 kPa) was 57.1 ± 0.09 kg/m3, the mass density (992.2 kPa) was 58.29 ± 0.09 kg/m3 and the mass density (1023.7 kPa) was 60.42 ± 0.09 kg/m3. For the same compound, the mass density (1038.9 kPa) was 61.48 ± 0.09 kg/m3, the mass density (1054.5 kPa) was 62.56 ± 0.09 kg/m3 and the mass density (1070 kPa) was 63.66 ± 0.09 kg/m3. It also gave a mass density (1085.8 kPa) of 64.72 ± 0.09 kg/m3, a mass density (1101.6 kPa) of 65.79 ± 0.1 kg/m3 and a mass density (1116.8 kPa) of 66.89 ± 0.1 kg/m3. The mass density (1131.5 kPa) was 67.98 ± 0.1 kg/m3, the mass density (1146.8 kPa) was 69 ± 0.1 kg/m3 and the mass density (1161.5 kPa) was 70.08 ± 0.1 kg/m3. It also gave a mass density (1205.5 kPa) of 73.34 ± 0.11 kg/m3, a mass density (1219.6 kPa) of 74.41 ± 0.11 kg/m3 and a mass density (1247.6 kPa) of 76.44 ± 0.11 kg/m3. For the same compound, the mass density (1261.7 kPa) was 77.55 ± 0.11 kg/m3, the mass density (1275.7 kPa) was 78.61 ± 0.11 kg/m3 and the mass density (1303.4 kPa) was 80.62 ± 0.12 kg/m3. For the same compound, the mass density (1330.3 kPa) was 82.8 ± 0.12 kg/m3, the mass density (1356.9 kPa) was 84.86 ± 0.12 kg/m3 and the mass density (1383.3 kPa) was 86.96 ± 0.13 kg/m3. The mass density (1408.9 kPa) was 88.93 ± 0.13 kg/m3, the mass density (1434.2 kPa) was 91.01 ± 0.13 kg/m3 and the mass density (1459.3 kPa) was 93.02 ± 0.14 kg/m3. For the same compound, the mass density (1483.9 kPa) was 95.18 ± 0.14 kg/m3, the mass density (1508 kPa) was 97.12 ± 0.14 kg/m3 and the mass density (1531.3 kPa) was 99.1 ± 0.15 kg/m3. For the same compound, the mass density (1554.6 kPa) was 101.06 ± 0.15 kg/m3, the mass density (1577.1 kPa) was 102.97 ± 0.15 kg/m3 and the mass density (1599.7 kPa) was 105.06 ± 0.16 kg/m3. The mass density (1621.5 kPa) was 106.97 ± 0.16 kg/m3, the mass density (1643.3 kPa) was 108.91 ± 0.16 kg/m3 and the mass density (1664 kPa) was 110.78 ± 0.17 kg/m3. The mass density (1684.8 kPa) was 112.72 ± 0.17 kg/m3, the mass density (1705.1 kPa) was 114.65 ± 0.17 kg/m3 and the mass density (1725.3 kPa) was 116.53 ± 0.17 kg/m3. For the same compound, the mass density (1745.4 kPa) was 118.38 ± 0.18 kg/m3, the mass density (1764.4 kPa) was 120.27 ± 0.18 kg/m3 and the mass density (1783 kPa) was 122.06 ± 0.18 kg/m3. The mass density (1801.8 kPa) was 123.93 ± 0.19 kg/m3, the mass density (1819.8 kPa) was 125.68 ± 0.19 kg/m3 and the mass density (1837.5 kPa) was 127.52 ± 0.19 kg/m3. The mass density (1854.8 kPa) was 129.26 ± 0.2 kg/m3, the mass density (1871.7 kPa) was 131.01 ± 0.2 kg/m3 and the mass density (1887.6 kPa) was 132.69 ± 0.21 kg/m3. For the same compound, the mass density (1901.9 kPa) was 134.3 ± 0.21 kg/m3, the mass density (1921.8 kPa) was 136.34 ± 0.21 kg/m3 and the mass density (1936 kPa) was 137.88 ± 0.21 kg/m3. The mass density (1955.9 kPa) was 140.04 ± 0.22 kg/m3, the mass density (1970.5 kPa) was 141.59 ± 0.22 kg/m3 and the mass density (1990.1 kPa) was 143.83 ± 0.23 kg/m3. For the same compound, the mass density (2027.5 kPa) was 148.08 ± 0.23 kg/m3, the mass density (2047 kPa) was 150.4 ± 0.24 kg/m3 and the mass density (2061 kPa) was 152.1 ± 0.25 kg/m3. The mass density (2079.9 kPa) was 154.31 ± 0.25 kg/m3, the mass density (2102.5 kPa) was 157.14 ± 0.25 kg/m3 and the mass density (2119.5 kPa) was 159.22 ± 0.26 kg/m3. The mass density (2136.1 kPa) was 161.36 ± 0.27 kg/m3, the mass density (2152.9 kPa) was 163.58 ± 0.27 kg/m3 and the mass density (2175.2 kPa) was 166.51 ± 0.29 kg/m3. For the same compound, the mass density (2194.7 kPa) was 169.1 ± 0.29 kg/m3, the mass density (2217.5 kPa) was 172.27 ± 0.3 kg/m3 and the mass density (2237.1 kPa) was 175.05 ± 0.31 kg/m3. It also gave a mass density (2258.4 kPa) of 178.08 ± 0.32 kg/m3, a mass density (2276.1 kPa) of 180.72 ± 0.31 kg/m3 and a mass density (2293.5 kPa) of 183.23 ± 0.32 kg/m3. The mass density (2310.9 kPa) was 185.85 ± 0.34 kg/m3, the mass density (2329.3 kPa) was 188.76 ± 0.36 kg/m3 and the mass density (2343.8 kPa) was 191.1 ± 0.34 kg/m3. It also gave a mass density (2361 kPa) of 193.93 ± 0.35 kg/m3, a mass density (2378.6 kPa) of 196.85 ± 0.37 kg/m3 and a mass density (2393.5 kPa) of 199.32 ± 0.38 kg/m3. It also gave a mass density (2410.2 kPa) of 202.31 ± 0.42 kg/m3, a mass density (2428.4 kPa) of 205.51 ± 0.43 kg/m3 and a mass density (2442.4 kPa) of 208.12 ± 0.4 kg/m3. The mass density (2463 kPa) was 211.98 ± 0.44 kg/m3, the mass density (2479.5 kPa) was 215.15 ± 0.46 kg/m3 and the mass density (2502.3 kPa) was 219.78 ± 0.55 kg/m3. For the same compound, the mass density (2520.3 kPa) was 223.6 ± 0.48 kg/m3, the mass density (2540.4 kPa) was 228.04 ± 0.47 kg/m3 and the mass density (2560 kPa) was 232.39 ± 0.5 kg/m3. The mass density (2575.6 kPa) was 236.13 ± 0.53 kg/m3.
